“And” between values parts separate entries of the source, which are not always exact repeats. Equal entries are not always repeated.
System: HCV replicon
Assay type: cell-based

With `CCOc1ccc2c(C#N)c(-c3ccc(NC(=O)OC(C)C)cc3)n(C(C)C)c2c1` [Compound 1058] the IC50 was under 0.5 µM.
Compound `CC(C)n1c(-c2ccc(NC(=O)O[C@H](C)C3CC3)cc2)c(C#N)c2ccc(Oc3ncccn3)cc21` [Compound 2208] has an IC50 of under 0.5 µM.
With `CCn1c(-c2ccc(NC(=O)OCCF)cc2)c(C#N)c2ccc(OCCF)cc21` [Compound 945] the IC50 was 0.5 to 2 µM.
In the case of `CCn1c(-c2cccc(NC(=O)Oc3ccc(OC)cc3)c2)c(C#N)c2ccc(OCCCCl)cc21` [Compound 1028], the IC50 was under 0.5 µM.
`CCn1c(-c2ccc(N3CC(=O)NC3=O)cc2)c(C#N)c2ccc(OC)cc21` [Compound 994] gave an IC50 of 0.5 to 2 µM.
With `CCOc1ccc2c(C#N)c(-c3ccc(NC(=O)NC(C)C)cc3)n(C3CCCC3)c2c1` [Compound 1221] the IC50 was under 0.5 µM.
Work on `CCNC(=O)Nc1ccc(-c2c(C#N)c3ccc(OCC)cc3n2CC(C)C)cc1` [Compound 1060] yielded an IC50 of 0.5 to 2 µM.
With `CC(OC(=O)Nc1ccc(-c2c(C#N)c3ccc(OCCN(C)C)cc3n2C2CCC2)cc1)C1CC1` (centres unmarked) [Compound 1327] the IC50 was under 0.5 µM.
For `N#Cc1c(-c2ccc(NC(=O)OC3CCCC3)cc2)n(C2CCC2)c2cc(OCc3cccnc3)ccc12` [Compound 1219], the IC50 was under 0.5 µM.
Work on `CC(C)OC(=O)Nc1ccc(-c2c(C#N)c3ccc(OCC4CCCO4)cc3n2C2CCC2)cc1` (centres unmarked) [Compound 1285] yielded an IC50 of under 0.5 µM.
For `CCOc1ccc2c(C#N)c(-c3ccc(NC(=O)OCC(C)(C)C)cc3)n(CC3CC3)c2c1` [Compound 1152], the IC50 was under 0.5 µM.
In the case of `CCCOc1ccc2c(C#N)c(-c3ccc(NC(=O)OC4CCOC4)cc3)n(C(C)C)c2c1` (centres unmarked) [Compound 1249], the IC50 was under 0.5 µM.
Compound `CCCCNC(=O)Nc1ccc(-c2c(C#N)c3ccc(OCC)cc3n2C(C)C)cc1` [Compound 1101] has an IC50 of under 0.5 µM.
Work on `COC(=O)c1ccc2c(C#N)c(-c3ccc(NC(=O)OC(C)C)cc3)n(C3CCC3)c2c1` [Compound 1300] yielded an IC50 of under 0.5 µM.
`CCNC(=O)Nc1ccc(-c2c(C#N)c3ccc(OCC)cc3n2C2CCCC2)cc1` [Compound 1143] was tested, and the IC50 was under 0.5 µM.
In the case of `CC(C)NC(=O)Nc1ccc(-c2c(C#N)c3ccc(OCCCN4CCCC4)cc3n2C2CCC2)cc1` [Compound 1309], the IC50 was under 0.5 µM.
In the case of `CCNC(=O)Nc1ccc(-c2c(C#N)c3ccc(OC)cc3n2CC)cc1F` [Compound 909], the IC50 was 0.5 to 2 µM.
Work on `CCn1c(-c2ccc(NC(=O)N3CCCCC3)cc2)c(C#N)c2ccc(OC)cc21` [Compound 1088] yielded an IC50 of 0.5 to 2 µM.
`CCCCOC(=O)Nc1ccc(-c2c(C#N)c3ccc(OC(F)F)cc3n2CC)cc1` [Compound 1133] gave an IC50 of 0.5 to 2 µM.
In the case of `CCCNC(=O)Nc1ccc(-c2c(C#N)c3ccc(OCC)cc3n2CCC)cc1` [Compound 1095], the IC50 was under 0.5 µM.
`CCCn1c(-c2cccc(NS(=O)(=O)CC)c2)c(C#N)c2cc(OCc3ccccc3)ccc21` [Compound 919] showed an IC50 of 0.5 to 2 µM.
`CCCS(=O)(=O)Nc1ccc(-c2c(C#N)c3ccc(OCCF)cc3n2C2CCC2)cc1` [Compound 1175] gave an IC50 of under 0.5 µM.
`CCn1c(-c2cccc(NS(=O)(=O)CC)c2)c(C#N)c2ccc(OCCCN3CCOCC3)cc21` [Compound 1035] was tested, and the IC50 was 0.5 to 2 µM.
`CCNc1ccc(-c2c(C#N)c3ccc(OCC)cc3n2C2CC2)cc1` [Compound 1311] showed an IC50 of under 0.5 µM.
Work on `COc1ccc2c(C#N)c(-c3ccc(NS(=O)(=O)C(C)C)cc3)n(CC3CCCC3)c2c1` [Compound 891] yielded an IC50 of 0.5 to 2 µM.
With `CCn1c(-c2ccc(NC(=O)C3CC3)cc2)c(C#N)c2ccc(OCCn3cncn3)cc21` [Compound 1093] the IC50 was 0.5 to 2 µM.
In the case of `CCOc1ccc2c(C#N)c(-c3ccc(N)cc3)n(C3CC3)c2c1` [Compound 1245], the IC50 was 0.5 to 2 µM.
With `CCn1c(-c2cccc(NC(=O)NCCCl)c2)c(C#N)c2ccc(OCCCN3CCOCC3)cc21` [Compound 1036] the IC50 was 0.5 to 2 µM.
In the case of `CCOc1ccc2c(C#N)c(-c3ccc(NC(=O)OC4CCOCC4)cc3)n(C3CCC3)c2c1` [Compound 1216], the IC50 was 0.5 to 2 µM.
`CCOc1ccc2c(C#N)c(-c3ccc(NC(=O)NC(C)C)cc3)n(CC3CC3)c2c1` [Compound 1120] showed an IC50 of under 0.5 µM.
With `CCCn1c(-c2ccc(NS(=O)(=O)CCC)cc2)c(C#N)c2cc(OC)ccc21` [Compound 1041] the IC50 was 0.5 to 2 µM and < 0.5 µM.
`CCCS(=O)(=O)Nc1ccc(-c2c(C#N)c3ccc(OC(F)F)cc3n2C2CCCC2)cc1` [Compound 1188] gave an IC50 of 0.5 to 2 µM.
With `CCNC(=O)Nc1ccc(-c2c(C#N)c3ccc(OCCCN4CCOCC4)cc3n2CC)cc1` [Compound 1124] the IC50 was < 0.5 µM and 0.5 to 2 µM.
For `CCn1c(-c2ccc(NP(=O)(OC)OC)cc2)c(C#N)c2ccc(OC)cc21` [Compound 944], the IC50 was 0.5 to 2 µM.
`CCCNC(=O)Nc1ccc(-c2c(C#N)c3ccc(OCC)cc3n2C(C)C)cc1` [Compound 1099] was tested, and the IC50 was 0.5 to 2 µM.
`C=CCNC(=O)Nc1ccc(-c2c(C#N)c3cc4c(cc3n2C2CCC2)OCO4)cc1` [Compound 1304] was tested, and the IC50 was 0.5 to 2 µM.
`CC#CCOC(=O)Nc1ccc(-c2c(C#N)c3ccc(OCC)cc3n2C2CCC2)cc1` [Compound 976] showed an IC50 of 0.5 to 2 µM.
Work on `CCn1c(-c2ccc(NC(=O)OC)cc2)c(C#N)c2ccc(OCCCCl)cc21` [Compound 1029] yielded an IC50 of 0.5 to 2 µM.
With `N#Cc1c(-c2ccc(N3CCCS3(=O)=O)cc2)n(CCF)c2cc(OC(F)(F)F)ccc12` [Compound 905] the IC50 was under 0.5 µM.
For `CCC(=O)Nc1ccc(-c2c(C#N)c3ccc(OC(F)(F)F)cc3n2CC)cc1` [Compound 914], the IC50 was 0.5 to 2 µM.
`CCOc1ccc2c(C#N)c(-c3ccc(NC(=O)NC(C)C)cc3)n(C(C)C)c2c1` [Compound 1100] showed an IC50 of under 0.5 µM.
For `CCCCNC(=O)Nc1ccc(-c2c(C#N)c3cc(OCC)ccc3n2C2CCC2)cc1` [Compound 1225], the IC50 was 0.5 to 2 µM and < 0.5 µM.
For `CCCOc1ccc2c(C#N)c(-c3ccc(NC(=O)OCC4CC4)cc3)n(C(C)C)c2c1` [Compound 1241], the IC50 was under 0.5 µM.
Work on `CC(C)(C)OC(=O)Nc1ccc(-c2c(C#N)c3ccc(OCCN4CCCC4)cc3n2C2CCC2)cc1` [Compound 1121] yielded an IC50 of under 0.5 µM.
For `CCCCn1c(-c2ccc(NC(=O)NCCC)cc2)c(C#N)c2ccc(OCC)cc21` [Compound 1066], the IC50 was 0.5 to 2 µM.
With `CCC(C)NC(=O)Nc1ccc(-c2c(C#N)c3ccc(OC(F)F)cc3n2CC2CC2)cc1` (centres unmarked) [Compound 1266] the IC50 was 0.5 to 2 µM.
`CCOc1ccc2c(C#N)c(-c3ccc(NC(=O)OCC4CCCO4)cc3)n(C3CCC3)c2c1` (centres unmarked) [Compound 1240] showed an IC50 of under 0.5 µM.
Compound `CCOc1ccc2c(c1)c(C#N)c(-c1ccc(NC(=O)OC3CCCC3)cc1)n2C1CCC1` [Compound 1199] has an IC50 of under 0.5 µM.
`CCN(CC)CCCOc1ccc2c(C#N)c(-c3ccc(NC(=O)OC(C)C)cc3)n(C3CCC3)c2c1` [Compound 1260] was tested, and the IC50 was under 0.5 µM.
`CCn1c(-c2ccc(NC(=O)NC(C)C)cc2)c(C#N)c2ccc(OC(F)F)cc21` [Compound 1137] showed an IC50 of 0.5 to 2 µM.
With `CCn1c(-c2ccc(NC(=O)NCCCl)cc2)c(C#N)c2ccc(OCCCN3CCOCC3)cc21` [Compound 1126] the IC50 was 0.5 to 2 µM.
For `CCOc1ccc2c(C#N)c(-c3ccc(NC(=O)NC4CC4)cc3)n(C3CCC3)c2c1` [Compound 1191], the IC50 was 0.5 to 2 µM.
In the case of `CC(C)OC(=O)Nc1ccc(-c2c(C#N)c3ccc(Oc4ncccn4)cc3n2C2CCC2)cc1F` [Compound 2336], the IC50 was under 0.5 µM.
For `CCCn1c(-c2ccc(NC(=O)NCC)cc2)c(C#N)c2ccc(OCC)cc21` [Compound 1094], the IC50 was 0.5 to 2 µM.
With `CCOc1ccc2c(C#N)c(-c3ccc(NC(=O)OC(C)C)cc3)n(C3CCCC3)c2c1` [Compound 1129] the IC50 was under 0.5 µM.
`CCNC(=O)Nc1ccc(-c2c(C#N)c3ccc(OCCF)cc3n2CC)cc1` [Compound 954] gave an IC50 of 0.5 to 2 µM.
With `CCOc1ccc2c(C#N)c(-c3ccc(NC(=O)OC4CCCC4)cc3)n(C(C)CC)c2c1` (centres unmarked) [Compound 1222] the IC50 was 0.5 to 2 µM.
In the case of `CCCS(=O)(=O)Nc1ccc(-c2c(C#N)c3ccc(OCC)cc3n2C2CCCC2)cc1` [Compound 1140], the IC50 was 0.5 to 2 µM.
With `C=CCOC(=O)Nc1ccc(-c2c(C#N)c3cc(OC)ccc3n2C2CCC2)cc1` [Compound 1180] the IC50 was 0.5 to 2 µM.
With `CCOc1ccc2c(c1)c(C#N)c(-c1ccc(NC(=O)OC(C)C)cc1)n2C1CCC1` [Compound 1195] the IC50 was under 0.5 µM.
Compound `CCCCOC(=O)Nc1ccc(-c2c(C#N)c3cc(OCC)ccc3n2C2CCC2)cc1` [Compound 1198] has an IC50 of under 0.5 µM.
`CCOc1ccc2c(C#N)c(-c3ccc(NC(=O)OC4CCCC4)cc3)n(C3CCCC3)c2c1` [Compound 1211] was tested, and the IC50 was under 0.5 µM.
Work on `COCCn1c(-c2ccc(N3CCCS3(=O)=O)cc2)c(C#N)c2ccc(OC(F)(F)F)cc21` [Compound 906] yielded an IC50 of 0.5 to 2 µM.
With `CCn1c(-c2ccc(N(C)S(=O)(=O)CC)cc2)c(C#N)c2ccc(C(F)(F)F)cc21` [Compound 1005] the IC50 was 0.5 to 2 µM.
Compound `CCn1c(-c2ccc(NC(=O)OC)c(C)c2)c(C#N)c2ccc(OC)cc21` [Compound 963] has an IC50 of 0.5 to 2 µM.
Compound `CCCOC(=O)Nc1ccc(-c2c(C#N)c3ccc(OC(F)(F)F)cc3n2CC)cc1` [Compound 889] has an IC50 of 0.5 to 2 µM.
`CCOc1ccc2c(c1)c(C#N)c(-c1ccc(NC(=O)NC(C)C)cc1)n2C1CCC1` [Compound 1223] gave an IC50 of under 0.5 µM.
`CC(C)NC(=O)Nc1ccc(-c2c(C#N)c3ccc(OCCn4cncn4)cc3n2C2CCC2)cc1` [Compound 1318] was tested, and the IC50 was under 0.5 µM.
Compound `CCCOc1ccc2c(C#N)c(-c3ccc(NC(=O)OCC(C)C)cc3)n(C(C)C)c2c1` [Compound 1206] has an IC50 of under 0.5 µM.
Work on `CCCn1c(-c2ccc(NS(C)(=O)=O)cc2)c(C#N)c2cc(OC)ccc21` [Compound 995] yielded an IC50 of 0.5 to 2 µM.
In the case of `CCn1c(-c2ccc(NC(=O)OC(C)C)cc2)c(C#N)c2cc3c(cc21)OCO3` [Compound 1040], the IC50 was 0.5 to 2 µM.
`CCn1c(-c2ccc(NC(=O)NC(C)C)cc2)c(C#N)c2cc3c(cc21)OCO3` [Compound 1039] showed an IC50 of 0.5 to 2 µM.
With `CCn1c(-c2ccc(NC(=O)OC)c(F)c2)c(C#N)c2ccc(OC)cc21` [Compound 875] the IC50 was 0.5 to 2 µM.
With `CCCCOC(=O)Nc1ccc(-c2c(C#N)c3cc(OCC)ccc3n2C2CCC2)cc1` [Compound 1197] the IC50 was 0.5 to 2 µM and < 0.5 µM.
`CCNC(=O)Nc1cccc(-c2c(C#N)c3ccc(OCCCN4CCOCC4)cc3n2CC)c1` [Compound 1043] gave an IC50 of 0.5 to 2 µM.
`CCn1c(-c2ccc(NC(=O)OC(C)(C)C)cc2)c(C#N)c2ccc(Br)cc21` [Compound 1048] gave an IC50 of 0.5 to 2 µM.
`C=CCNC(=O)Nc1ccc(-c2c(C#N)c3ccc(OCCCN4CCOCC4)cc3n2CC)cc1` [Compound 1125] gave an IC50 of under 0.5 µM.
Work on `CCOc1ccc2c(C#N)c(-c3ccc(NC(=O)OCCF)cc3)n(CC)c2c1` [Compound 950] yielded an IC50 of 0.5 to 2 µM.
With `CCCn1c(-c2ccc(NC(=O)OC)cc2)c(C#N)c2ccc(OCC)cc21` [Compound 1062] the IC50 was 0.5 to 2 µM.
Work on `N#Cc1c(-c2ccc(NS(=O)(=O)C3CC3)cc2)n(C2CCC2)c2cc(OCC3CCCO3)ccc12` (centres unmarked) [Compound 1280] yielded an IC50 of under 0.5 µM.

— US7973069B2 (PTC Therapeutics, Inc., priority 2004, dated 2011)
